What was measured:
[1] = system: ALK; test: In vitro transcription-translation (IVTT) reporter assay, ALK test sequence; type: biochemical; settings: HeLa S3 lysate, sfGFP/mCherry ratio, 2 hrs at 30° C.
Procedure, shortened: (§1)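 Coupled transcription-translation in HeLa S3 lysate with reporter plasmids encoding mCherry-P2A-3×FLAG-TEST-sfGFP behind an EMCV IRES. Compounds were half-log titrated (30 μM-0.1 μM in DMSO dilution plate) into master mix, then DNA was added. Reactions ran 2 hrs at 30° C, were PBS-quenched and read for fluorescence.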

[2] = system: MYC; test: In vitro transcription-translation (IVTT) reporter assay, MYC test sequence; type: biochemical; settings: HeLa S3 lysate, sfGFP/mCherry ratio, 2 hrs at 30° C.
Procedure, shortened: as §1

[3] = system: KRAS G12D; test: In vitro transcription-translation (IVTT) reporter assay, KRAS G12D test sequence; type: biochemical; settings: HeLa S3 lysate, sfGFP/mCherry ratio, 2 hrs at 30° C.
Procedure, shortened: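 Compounds, half-log titrated 30 μM-0.1 μM in DMSO, were mixed with HeLa S3 lysate master mix and plasmid DNA, then incubated 2 h at 30 °C before PBS quench. Each construct fuses the CCND1, KRAS G12D, MCL-1 or BCL-2 sequence between 3×FLAG and sfGFP, downstream of mCherry-P2A.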

[4] = system: HEK 293T; test: Cell viability (CellTiter-Fluor), HEK 293T; type: cell-based; settings: Homo sapiens, 24-72 hrs
Procedure: (§2) Count and dispense 2,000-10,000 cells per well (100 μL volume) in black 96-well tissue culture microplate and let cells adhere overnight. Add compound dissolved in 100% DMSO to each well as needed and incubate cells in standard culture conditions for 24-72 hrs. Final DMSO concentration in each well should be 0.1-0.5%. At the desired time point, gently aspirate compound containing media and replace with PBS to wash. Repeat wash step for 2 total washes. Remove PBS and add 100 μL CellTiter-Fluor reagent (Promega) reagent to each well. Seal plate and incubate 1 hr at room temperature with orbital shaking. Analyze fluorescence using plate reader to quantify viable cells compared with vehicle (DMSO) control.

[5] = system: HPAF-II; test: Cell viability (CellTiter-Fluor), HPAF-II; type: cell-based; settings: Homo sapiens, 24-72 hrs
Procedure: as §2

[6] = system: KLE; test: Cell viability (CellTiter-Fluor), KLE; type: cell-based; settings: Homo sapiens, 24-72 hrs
Procedure: as §2

[7] = system: LS411N; test: Cell viability (CellTiter-Fluor), LS411N; type: cell-based; settings: Homo sapiens, LS-411N, 24-72 hrs
Procedure: as §2

[8] = system: MCF7; test: Cell viability (CellTiter-Fluor), MCF7; type: cell-based; settings: Homo sapiens, MCF7, 24-72 hrs
Procedure: as §2

[9] = system: NCI-H1915; test: Cell viability (CellTiter-Fluor), NCI-H1915; type: cell-based; settings: NCI-H1915, 24-72 hrs
Procedure: as §2

[10] = system: HCC38; test: Cell viability (CellTiter-Fluor), HCC38; type: cell-based; settings: Homo sapiens, HCC38, 24-72 hrs
Procedure: as §2

[11] = system: KATO-III; test: Cell viability (CellTiter-Fluor), KATO-III; type: cell-based; settings: Homo sapiens, 24-72 hrs
Procedure: as §2

[12] = system: MS751; test: Cell viability (CellTiter-Fluor), MS751; type: cell-based; settings: MS751, 24-72 hrs
Procedure: as §2

[13] = system: T47D; test: Cell viability (CellTiter-Fluor), T47D; type: cell-based; settings: Homo sapiens, 24-72 hrs
Procedure: as §2

[14] = system: CCND1; test: In vitro transcription-translation (IVTT) reporter assay, CCND1 test sequence; type: biochemical; settings: HeLa S3 lysate, sfGFP/mCherry ratio, 2 hrs at 30° C.
Text: (§3) All reporter constructs have been cloned into the pT7CFE1-CHis plasmid (ThermoFisher #88860) using Gibson assembly procedures (NEB #E2611L). The parental pT7CFE1-CHis plasmid contains an EMCV IRES at the 5′UTR for translation initiation, a multiple-cloning site (MCS) for gene insertion, an optional C-terminal His-epitope tag, and polyA sequence in the 3′UTR to regulate mRNA stability. All reporters are designed to be inserted at the MCS to include a red fluorescent protein (mCherry), P2A self-cleaving peptide which releases the preceding mCherry protein product, and a fusion open reading frame containing a 3×FLAG epitope, a peptide sequence of interest (TEST), and green fluorescent protein (sfGFP).
(§4) Construct Plasmid Preparation: All plasmids are isolated from MACH1 cells (ThermoFisher) grown overnight in ampicillin-containing luria broth, and purified using ZymoPure Express Plasmid Midiprep Kit (Zymo Research). Constructs are sequenced verified and diluted to a working concentration of 110 ng/μL.
(§5) HeLa S3 Lysate Preparation: HeLa S3 cell pellets are acquired from Ipracell/Ipratech (Belgium) and shipped as 4 mL frozen cell pellets on dry ice for storage at −80° C. until use. The procedure for lysate preparation is as follows. Prepare 1× Lysis Buffer, cold and stored on ice:
(§6) Each preparation takes 8 cell pellets (4 ml packed volume each, approximately 1.0×10^9 cells per pellet). Thaw cell pellets from −80° C. on ice for 90 mins. Lay pellets horizontally on top of the ice and rotate every 30 mins to ensure even thawing. Once thawed, add 4 mL of cold lysis buffer to each pellet, and using a serological pipet, gently pipet up and down to break up clumps. Incubate resuspended cells in ice for an additional 30 mins (plunged into ice). During 30 min incubation, rinse and RNase-zap (Ambion) glass dounces (use loose pestle “A”), gently dry and place on ice until needed. Prepare RNase-free Eppendorf tubes for spinning and for batch storage. Add batch labels to 1.5-1.7 mL RNase-free microcentrifuge tubes (labeling scheme below). Each batch will have an extra 1.5-1.7 mL RNase-free microcentrifuge tube for 40 μL of lysate, label the top of this tube (labeling scheme below). After 30 min incubation, transfer all 8 mL of cell pellet to dounce. Cell lysis is complete after douncing 100 times. Aliquot cell lysis into 1.5-1.7 mL temporary-microcentrifuge tubes. Place tubes in centrifuge with “fins” out, and spin at 1,200 xg for 5 mins. After the first spin use a 1 mL pipet to resuspend each tube and repeat spin. This acts as an additional lysis step, is more vigorous and increases lysate yield. During second spin get liquid N2 and a fresh conical tube on ice.
(§7) After spin is complete, transfer supernatant (lysate) from microcentrifuge tubes into the 50 mL conical tube and keep on ice. Repeat steps 10-14 for all other cell pellets until completed. Once all cell lysate has been transferred to the 50 mL conical tube pipet to mix so the solution is homogenous. Transfer 1 mL of lysate into batch-labeled microcentrifuge tubes and flash freeze in liquid nitrogen. Be sure to pipet up and down to mix throughout transfer step. Place all tubes in the […] for long-term storage.
(§8) In vitro transcription-translation assay setup: Each assay includes a master mix containing lysate and shared components, a 96-well plate containing compound titrations for testing, a 96-well DNA plate with reporter constructs to be tested, 96-well skirted PCR plates, and 96-well flat-bottom, black, fluorescent assay plates. […]

[15] = system: BCL-2; test: In vitro transcription-translation (IVTT) reporter assay, BCL-2 test sequence; type: biochemical; settings: HeLa S3 lysate, sfGFP/mCherry ratio, 2 hrs at 30° C.
Text: as §3, §4, §5, §6, §7, §8

[16] = system: MCL-1; test: In vitro transcription-translation (IVTT) reporter assay, MCL-1 test sequence; type: biochemical; settings: HeLa S3 lysate, sfGFP/mCherry ratio, 2 hrs at 30° C.
Text: as §3, §4, §5, §6, §7, §8

[17] = system: HEPG2; test: Cell viability (CellTiter-Fluor), HEPG2; type: cell-based; settings: Homo sapiens, HEPG2, 24-72 hrs
Procedure: as §2

| IC50 [1] [nM] | IC50 [2] [nM] | IC50 [3] [nM] | IC50 [8] [nM] | IC50 [9] [nM] | IC50 [10] [nM] | IC50 [13] [nM] | IC50 [14] [nM] | IC50 [15] [nM] | IC50 [16] [nM] | IC50 [17] [nM] | Structure (SMILES) | IC50 [4] [nM] | IC50 [5] [nM] | IC50 [6] [nM] | IC50 [7] [nM] | IC50 [11] [nM] | IC50 [12] [nM] |
| --- | --- | --- | --- | --- | --- | --- | --- | --- | --- | --- | --- | --- | --- | --- | --- | --- | --- |
| < 10000 | < 10000 | < 10000 | < 250 | < 250 | < 250 | < 250 | < 10000 |  |  |  | COc1ccc(C[C@H]2NC[C@H](O)[C@H]2OC(=O)Cc2cscn2)cc1 [V187049] | < 250 | < 250 | < 250 | < 250 | < 250 | < 250 |
| < 10000 | < 10000 | < 10000 | 250 to 1000 | 250 to 1000 | 250 to 1000 | 250 to 1000 |  |  |  |  | COc1ccc(CC2NCC(O)C2OC(=O)CC2CC2(F)F)cc1 [V187061, 2R,3S,4S)-4-hydroxy-2-[(4-methoxyphenyl)methyl]pyrrolidin-3-yl 2-(2,2-difluorocyclopropyl)acetate] | < 250 | 250 to 1000 | 250 to 1000 | < 250 | 1000 to 4000 | < 250 |
| < 10000 | < 10000 | < 10000 | 250 to 1000 | ≥ 4000 | 1000 to 4000 | 1000 to 4000 | < 10000 | < 10000 | < 10000 | 250 to 1000 | COc1ccc(C[C@H]2NC[C@H](O)[C@H]2OC(=O)C[C@@H]2CCNC2)cc1 [V187690] | 250 to 1000 | ≥ 4000 | 1000 to 4000 | 250 to 1000 | 1000 to 4000 | 250 to 1000 |

| Structure (SMILES) | IC50 [1] [nM] | IC50 [2] [nM] | IC50 [3] [nM] | IC50 [8] [nM] | IC50 [9] [nM] | IC50 [10] [nM] | IC50 [13] [nM] | IC50 [14] [nM] | IC50 [15] [nM] | IC50 [16] [nM] | IC50 [17] [nM] | IC50 [4] [nM] | IC50 [5] [nM] | IC50 [6] [nM] | IC50 [7] [nM] | IC50 [11] [nM] | IC50 [12] [nM] |
| --- | --- | --- | --- | --- | --- | --- | --- | --- | --- | --- | --- | --- | --- | --- | --- | --- | --- |
| COc1ccc(C[C@H]2NC[C@H](O)[C@H]2OC(=O)CC2CC(F)(F)C2)cc1 [V187043, (2R,3S,4S)-4-hydroxy-2-[(4-methoxyphenyl)methyl]pyrrolidin-3-yl 2-(3,3-difluorocyclobutyl)acetate; trifluoroacetic acid] | < 10000 | < 10000 | < 10000 | < 250 | 250 to 1000 | < 250 | < 250 |  |  |  |  | < 250 | 250 to 1000 | < 250 | < 250 | 250 to 1000 | < 250 |

From patent US20250091989A1, “SMALL MOLECULE PROTEIN SYNTHESIS MODULATORS” (Interdict Bio, Inc., priority 2023, published 2025)
